Several values for one entry are separate records, joined by “and”; a condition that tells them apart may be missing. Equal entries are not always repeated.
Experiments:
[1] = Hydrogel formation, vial inversion test (critical gel concentration); assay type: physicochemical; settings: solvent switch
[2] = as above; assay type: physicochemical; set-up: key: OG: opaque gel; P: precipitate; settings: solvent switch
Description: The simplest method to determine whether a suitable hydrogel has formed is to use the vial inversion test. Through visual inspection, a material can be categorised as a solution, viscous solution, partial gel, or solid-like gel. A stable hydrogel needs to be able to hold its weight and/or maintain its shape during this assessment.
The critical gel concentration (CGC) is defined as the minimum mass of a short peptide required to provide a self-supporting hydrogel per unit volume in the vial inversion test (measured as % w/v).
Pre-weighed samples of short peptide 4 were prepared in aluminium-covered glass vials and Milli-Q water and 2 equivalents of NaOH (1.0 M) were added to make up concentrations of 1% w/v. The resulting suspensions were vortexed for 5 minutes to provide clear yellow solutions with pH 11.
To create a high ionic strength environment, 1 equivalent of NaCl was added and the vial was left to stand without disturbance for 3 hours at room temperature. Meanwhile, as an attempt to form a hydrogel by lowering the pH, 2 equivalents of GdL were added to a high pH solution of 4 followed by gentle mixing. These vials were inverted and allowed to stand overnight to confirm the hydrogel formation.
The formation of hydrogel 4 via the solvent switch method was conducted by dissolving short peptide 4, in an aluminium covered glass vial, with either 50% methanol, ethanol, or dimethyl sulfoxide (DMSO). Respective amounts of Mili-Q water were added to make up concentrations of 1% w/v.
In addition, gelation time was defined as the time (hours) required for 1% w/v of short peptide 4 to form a hydrogel which can be turned upside down without collapsing.
Pre-weighed samples of short peptides 10a-17a, 18, and 19 were prepared in glass vials with 10 mm internal diameter, and Milli-Q water was added to make up concentrations of 1% w/v. The resulting suspensions of short peptides 13, 18, and 19 (as ammonium or guanidinium salts) were slowly warmed until all solid had completely dissolved. GdL (1.5 to 2.0 equivalents) was added to the suspension of short peptides 10a-17a, before heat was applied. To create a high ionic strength environment, 1-5 equivalents of NaCl was added to the viscous solution of 10a-17a to make the total volume up to 1 mL, followed by gentle mixing, and the vial was left to stand without disturbance for 3 hours at room temperature. Subsequently, these vials were inverted and allowed to stand overnight to confirm hydrogel formation.

[3] = Solubility in water; assay type: physicochemical; settings: even with vigorous heating
Description: Nitrobenzene-appended short peptide 4 was not soluble in water even with vigorous heating. Therefore, NaOH (2 equivalents) was added to deprotonate the carboxylic acid group at the C-terminus of short peptide 4, generating a sodium carboxylate salt with increased solubility in water. The yellow suspension of short peptide 4 was sonicated for 5 minutes after the addition of alkali, resulting is dissolution and formation of a yellow solution.

[4] = Release of cationic short peptide from hydrogel (UV-Vis); assay type: physicochemical; settings: hydrogel 1% w/v, PBS, 37° C.
Description: Hydrogel 11 was made at 1% w/v with a final volume of 1 mL. The resulting hydrogel was left to stand overnight at room temperature. Phosphate buffer solution (PBS, 1 mL) was added gently from the side wall to avoid physical fractures. Subsequently, the vial was incubated at 37° C., where 1 mL of PBS was sampled at each time point and replaced with fresh PBS. Samples were subjected to 10× dilution before analysis using UV-Vis spectroscopy. This experiment was performed in triplicate.

[5] = system: S. aureus 38; test: Antibacterial activity of cationic hydrogels, viable count method; assay type: cell-based, Staphylococcus aureus; settings: hydrogel at 1% w/v in contact with S. aureus, compared to control
Description: (§1) The antibacterial activity of the anthranilamide-based cationic hydrogels 11-13 and 15-19 was investigated in vitro against S. aureus. The antibacterial activity of anthranilamide-based cationic hydrogel 11 was also investigated in vitro against E. coli.
(§2) First, a single colony of S. aureus 38 or E. coli K12 was grown in Luria-Bertani (LB) broth medium at 37° C. overnight. The resulting bacteria were harvested, via centrifugation, to obtain a bacteria pellet which was re-suspended in the same volume of LB medium, twice. The optical density (OD) value of the resulting culture was adjusted to 0.1 at 600 nm in LB (10^8 cfu·mL^−1). This bacteria solution was then further adjusted to 3×10^4 cfu mL^−1. (CFU or cfu=colony-forming unit). Bacteria solutions (1 mL), which contain either 10^8 CFUs/mL or 3×10^4 CFUs/mL, were gently added to hydrogel 11 at 1% w/v with total volume of 1 mL. Anthranilamide-based cationic hydrogels 11-13 and 15-19 (1 mL) were prepared at 1% w/v in glass vials as described above. On top of these pre-formed hydrogels, 1 mL of bacteria solution was carefully cast. […] As a negative control, a bacterial solution in the absence of hydrogel was used. After being incubated at 37° C. for 18 hours, 100 μL of bacteria solution in each vial was taken and subjected to serial dilution using phosphate buffer solution (PBS). 20 μL of each dilution were carefully transferred into nutrient agar plates and incubated for another 18 hours. The following day, bacterial growth inhibition was quantified using the viable count method. The experiment was performed twice in triplicate and multiple sample comparison was performed using one-way ANOVA at p<0.05.

[6] = system: E. coli K12; test: Antibacterial activity of cationic hydrogel 11, viable count method; assay type: cell-based, Escherichia coli; settings: hydrogel 11 at 1% w/v in contact with E. coli
Description: as §1
as §2, with “After being incubated at 37° C. for 18 hours, 100 μL of bacteria solution in each vial was taken and subjected to serial dilution using phosphate buffer solution (PBS). 20 μL of each dilution were carefully transferred into nutrient agar plates and incubated for another 18 hours.” left out, “The experiment was performed twice in triplicate and multiple sample comparison was performed using one-way ANOVA at p<0.05.” left out

[7] = system: S. aureus 38; test: Microdilution MBC of released fibers versus free compound; assay type: cell-based, Staphylococcus aureus
Description: To confirm their antibacterial efficacy, the released fibers from day 1 and day 9 were subjected to a standard microdilution protocol.
To further investigate their antibacterial activity, the released fibers from hydrogel 11 were tested against S. aureus 38. The solutions sampled from day 1 and day 9 were adjusted to obtained final concentrations of […]. Then, 100 μL of these solutions were transferred to a 96 well plate. […] 100 μL of each of these peptide solutions was also transferred to a 96 well plate.
Subsequently, 100 μL of a bacteria solution, adjusted to 10^6 CFUs/mL was added to each well. Two controls were used: one containing 100 μL of LB and 100 μL of PBS, and the other containing 100 μL of bacteria solution and 100 μL of PBS. The plate was then incubated at 37° C. for 24 hours. The following day, 20 μL solution from each well was subjected to a serial dilution then transferred onto agar plates followed by incubation at 37° C. for another 24 hours. MBC value was determined as the lowest concentration that inhibited S. aureus growth on the agar plate.

SMILES | Time (gelation time) ([1]; DMSO 5 % v/v) | Time (gelation time) ([1]; MeOH 5 % v/v) | Remarks (gel state) ([2]; DMSO 5 % v/v) | Remarks (gel state) ([2]; DMSO 50 % v/v) | Remarks (gel state) ([2]; EtOH 5 % v/v) | Remarks (gel state) ([2]; EtOH 50 % v/v) | Remarks (gel state) ([2]; MeOH 5 % v/v) | Remarks (gel state) ([2]; MeOH 50 % v/v) | solubility in water [3] | peptide released from hydrogel ([4]; 24 hours) | total peptide released ([4]; over 9 days) [%] | bacterial reduction [5] [Log10] | bacteria reduction [6] | MBC ([7]; Staphylococcus aureus, 38, fibers in solution released from hydrogel 11, S. aureus, 24 hours, read-out: minimum bactericidal concentration (MBC)) [µM] | bacteria reduction ([7]; free compound (not hydrogel-formed) at 62 μM, S. aureus) [Log10 CFU/mL]
O=C(Nc1ccccc1C(=O)N[C@@H](Cc1ccccc1)C(=O)N[C@@H](Cc1ccccc1)C(=O)O)c1ccc([N+](=O)[O-])c(C(F)(F)F)c1 [Compound 4, (2-(4-Nitro-3-(trifluoromethyl)benzamido)benzoyl)-L-phenylalanyl-L-phenylalanine] | Immed. | Immed. | P | OG | P | OG | P | OG | not soluble | – | – | – | – | – | –
NCCCNC(=O)[C@H](Cc1ccccc1)NC(=O)c1ccccc1NC(=O)c1ccc2ccccc2c1 [Compound 11] | – | – | – | – | – | – | – | – | – | 0.15 mg/mL and 221 μM | ~14 | 9.0 | 6.4 Log10 and 6.2 Log10 | 62 | < 1

From US20230123497A1, “NOVEL ANTIBACTERIAL HYDROGELS” (NewSouth Innovations Pty Limited, priority 2020, published 2023)
